Results from PMC6272646, “Understanding the Physicochemical Properties of Mitragynine, a Principal Alkaloid of Mitragyna speciosa, for Preclinical Evaluation” (Molecules, 2015).
Converted amounts (≈) assume the structure as drawn. Like-named read-outs stand apart in the source and are kept apart here.

Key:
[1] = pKa determination, conventional UV spectrophotometer method; assay type: physicochemical; conditions: aqueous buffer
Excerpt: (§1) The instruments employed were UV spectrophotometer 8453 UV-Vis Diode Array (Agilent, Santa Clara, CA, USA), and Multiskan* GO Microplate Spectrophotometer (Thermo Scientific, Waltham, MA, USA). Data were captured using the Thermo Scientific SkanIt Software (Thermo Scientific, Version 3.2). Buffer Maker Software (version 1.0.1.55, BPP Marcin Borkowski, Marki, Poland,) was used for preparation of buffers with constant ionic strength for pKa determination. The pH-meter employed throughout the study was a PH 211 Hanna (Padova, Italy) equipped with a combined glass electrode.
(§2) pKa determination was carried out using conventional UV and microplate spectrophotometer methods. Acetic acid, tris base and sodium carbonate were used to prepare stable buffers in the pH range of 3 to 12. The buffers were prepared to give a final buffer molarity of 0.01 M. Either NaOH or HCl were used for pH adjustment of the various buffers, whose ionic strength was kept constant at 0.02 by addition of NaCl.
Five mL aliquots of buffer of various pH were transferred into separate tubes. To each tube, mitragynine stock solution in acetonitrile (4 mg/mL) was added to give a final drug concentration of 20 µg/mL. The percentage of organic content in final buffer preparation was kept below 1%. The prepared solutions were immediately scanned in the range of 200–400 nm.
(§3) Stock solution of mitragynine at 0.5 mg/mL was prepared in acetonitrile. Ten microliters of the stock solution was transferred into individual test tubes and diluted with 1.0 mL buffer of various pH to give a final concentration of 5 μg/mL. For absorbance spectrum analysis, 250 μL of the various pH buffer solutions spiked with drug were placed in a 96-well quartz UV-transparent microplate and immediately scanned in the range of 200–400 nm at a scanning rate of 200 nm/s in triplicates. The pKa was calculated with equation pKa = pH + log (d − dm/di − d), for basic compound, where di is the absorbance of the ionised species, d is the absorbance of the solution tested and dm is the absorbance of the neutral species.

[2] = pKa determination, microplate spectrophotometer method; assay type: physicochemical; conditions: aqueous buffer
Excerpt: as §1, §2, §3

[3] = Equilibrium solubility in water and buffers (HPLC-UV); assay type: physicochemical
Description: (§4) The HPLC system consisted of a Jasco delivery pump (Tokyo, Japan) equipped with autosampler connected to a Waters 2487 detector (Milford, MA, USA) coupled to Jasco Chromnav software (Version 2.0, Tokyo, Japan). Chromatographic separation was performed on a C8 Agilent Eclipse plus (4.6 mm i.d. × 250 mm, 5-μm particle size; Apple Valley, MN, USA). The HPLC-UV method was adapted from our previous study and revalidated for the present HPLC system. The method was employed to quantify mitragynine in partition coefficient, stability, dissolution and solubility studies.
For solubility studies, an excess of mitragynine was added to 1.0 mL each of distilled water or buffers at pH 4, 7 and 9. The test tubes were placed in a water bath shaker at 37 degrees Celsius at 100 cycles/min for 48 h until equilibrium. The samples were centrifuged at 3000 rpm for 5 min and supernatant was taken for quantification of mitragynine by HPLC-UV. For stability studies, analogous buffers were used, but they were spiked with mitragynine in acetonitrile to give a concentration of 20 µg/mL (organic content was kept below 1%). A 0.1 mL aliquot was collected from each buffer system at intervals of 0, 0.5, 6.0 and 24.0 h for determination of mitragynine. Mitragynine concentrations were expressed as percentage recovered. All experiments were performed in triplicates.

[4] = n-octanol/water partition coefficient (logP, logD); assay type: physicochemical; conditions: for logD: read-out: Calculated n-octanol/water partition coefficient (logD)
Description: as §4
Lipophilicity of mitragynine was determined by n-octanol/water partition coefficient (P) using the method described by Low et al.. The distribution coefficient (log D) was determined in a similar manner to logP but instead of using water, buffers with a specific pH (4, 7, and 9) were used.

[5] = test system: mice; parameters: method as in Macko et al, 15; conditions: mitragynine salt solution, ref Macko et al, 15; cited from earlier work
[6] = test system: rats; parameters: method as in Macko et al, 15; conditions: mitragynine salt solution, ref Macko et al, 15; cited from earlier work
[7] = test system: rodents; parameters: method as in PMID 4626477; conditions: cited from earlier work
[8] = test system: rats; parameters: method as in PMID 25262913; conditions: cited from earlier work
[9] = Stability in simulated intestinal fluid (SIF, with enzymes); conditions: for Concentration Found in SIF: SIF pH 6.8 with pancreatin

CC[C@@H]1CN2CCc3c([nH]c4cccc(OC)c34)[C@@H]2C[C@@H]1/C(=C\OC)C(=O)OC [mitragynine]
pKa ([1]; UV Spectrophotometer, Day 1, read-out: pKa, interday repeatability): 8.18 | pKa ([1]; UV Spectrophotometer, Day 2, read-out: pKa, interday repeatability): 8.11 | pKa ([1]; UV Spectrophotometer, Day 3, read-out: pKa, interday repeatability): 8.15 | pKa ([1]; pH 7.52, target pH 7.6, actual pH 7.52, 20 µg/mL, 248 nm, read-out: pKa): 8.02 | pKa ([1]; pH 7.6, conventional UV method, mean over pH 7.6-9.0, read-out: pKa (Mean ± SD)): 8.11 ± 0.11 | pKa ([1]; pH 7.78, target pH 7.8, actual pH 7.78, 20 µg/mL, 248 nm, read-out: pKa): 8.16 | pKa ([1]; pH 7.96, target pH 8.0, actual pH 7.96, 20 µg/mL, 248 nm, read-out: pKa): 8.17 | pKa ([1]; pH 8.13, target pH 8.2, actual pH 8.13, 20 µg/mL, 248 nm, read-out: pKa): 8.18 | pKa ([1]; pH 8.34, target pH 8.4, actual pH 8.34, 20 µg/mL, 248 nm, read-out: pKa): 8.13 | pKa ([1]; pH 8.45, target pH 8.6, actual pH 8.45, 20 µg/mL, 248 nm, read-out: pKa): 8.05 | pKa ([1]; pH 8.71, target pH 8.8, actual pH 8.71, 20 µg/mL, 248 nm, read-out: pKa): 8.27 | pKa ([1]; pH 8.92, target pH 9.0, actual pH 8.92, 20 µg/mL, 248 nm, read-out: pKa): 7.93 | pKa ([2]; Microplate Spectrophotometer, Day 1, read-out: pKa, interday repeatability): 8.18 | pKa ([2]; Microplate Spectrophotometer, Day 2, read-out: pKa, interday repeatability): 8.1 | pKa ([2]; Microplate Spectrophotometer, Day 3, read-out: pKa, interday repeatability): 8.12 | pKa ([2]; pH 7.55, target pH 7.6, actual pH 7.55, 5 µg/mL, 248 nm, read-out: pKa): 8.09 | pKa ([2]; pH 7.6, microplate method, mean over pH 7.6-9.0, read-out: pKa (Mean ± SD)): 8.08 ± 0.04 | pKa ([2]; pH 7.76, target pH 7.8, actual pH 7.76, 5 µg/mL, 248 nm, read-out: pKa): 8.11 | pKa ([2]; pH 7.94, target pH 8.0, actual pH 7.94, 5 µg/mL, 248 nm, read-out: pKa): 8.03 | pKa ([2]; pH 8.15, target pH 8.2, actual pH 8.15, 5 µg/mL, 248 nm, read-out: pKa): 8.09 | pKa ([2]; pH 8.32, target pH 8.4, actual pH 8.32, 5 µg/mL, 248 nm, read-out: pKa): 8.1 | pKa ([2]; pH 8.5, target pH 8.6, actual pH 8.50, 5 µg/mL, 248 nm, read-out: pKa): 8.03 | pKa ([2]; pH 8.66, target pH 8.8, actual pH 8.66, 5 µg/mL, 248 nm, read-out: pKa): 8.15 | pKa ([2]; pH 8.8, target pH 9.0, actual pH 8.80, 5 µg/mL, 248 nm, read-out: pKa): 8.06 | solubility at 48 h ([3]; aqueous buffer, thermodynamic from solid, buffer pH 4, 37 °C): 3500 ± 10 µg/mL (≈ 8780 µM) | solubility at 48 h ([3]; aqueous buffer, thermodynamic from solid, buffer pH 7, 37 °C): 88.9 ± 1.6 µg/mL (≈ 223 µM) | solubility at 48 h ([3]; aqueous buffer, thermodynamic from solid, buffer pH 9, 37 °C): 18.7 ± 0.4 µg/mL (≈ 46.9 µM) | solubility at 48 h ([3]; distilled water, thermodynamic from solid, water, 37 °C): 64.6 ± 1.2 µg/mL (≈ 162 µM) | solubility at 48 h ([3]; distilled water, water, 37 °C): < 100 µg/mL | logD ([4]; n-octanol/buffer pH 4, pH 4): 0.78 | logD ([4]; n-octanol/buffer pH 7, pH 7): 1.73 | logD ([4]; n-octanol/buffer pH 9, pH 9): 1.56 | logP ([4]; n-octanol/water, read-out: Calculated n-octanol/water partition coefficient (logP)): 1.7 | Mitragynine Content in buffer layer ([4]; octanol / buffer pH 4): 2.98 µg/mL | Mitragynine Content in octanol layer ([4]; octanol / buffer pH 4): 17.97 µg/mL | Mitragynine Content in buffer layer ([4]; octanol / buffer pH 7): 0.38 µg/mL | Mitragynine Content in octanol layer ([4]; octanol / buffer pH 7): 20.54 µg/mL | Mitragynine Content in buffer layer ([4]; octanol / buffer pH 9): 0.51 µg/mL | Mitragynine Content in octanol layer ([4]; octanol / buffer pH 9): 18.45 µg/mL | Mitragynine Content in aqueous layer ([4]; octanol / water): 0.42 µg/mL | Mitragynine Content in octanol layer ([4]; octanol / water): 20.74 µg/mL | dose up to which no adverse reactions were reported [5]: 920 mg/kg | dose up to which no adverse reactions were reported [6]: 806 mg/kg | dose levels with no toxicity [7]: 800 to 900 mg/kg | addictive potential effects ([8]; i.p. in Tween 80, high (30 mg/kg) and moderate (10 mg/kg) doses): observed | addictive potential effects ([8]; i.p. in Tween 80, mild (5 mg/kg) and low (1 mg/kg) doses): absent | Concentration Found in SIF ([9]; 0 min, 37 °C): 6700 ± 600 ng/mL | RD (relative difference vs time 0) in SIF ([9]; 10 min): −0.07% | Concentration Found in SIF ([9]; 10 min, 37 °C): 6690 ± 630 ng/mL | Concentration Found in SIF ([9]; 20 min, 37 °C): 6560 ± 670 ng/mL | RD (relative difference vs time 0) in SIF ([9]; 30 min): 4.43% | Concentration Found in SIF ([9]; 30 min, 37 °C): 6990 ± 210 ng/mL | RD (relative difference vs time 0) in SIF ([9]; 40 min): 4.94% | Concentration Found in SIF ([9]; 40 min, 37 °C): 7030 ± 130 ng/mL | RD (relative difference vs time 0) in SIF ([9]; 50 min): 3.49% | Concentration Found in SIF ([9]; 50 min, 37 °C): 6930 ± 130 ng/mL | RD (relative difference vs time 0) in SIF ([9]; 60 min): 2.49% | Concentration Found in SIF ([9]; 60 min, 37 °C): 6860 ± 10 ng/mL | RD (relative difference vs time 0) in SIF ([9]; 120 min): 1.31% | Concentration Found in SIF ([9]; 120 min, 37 °C): 6780 ± 790 ng/mL | RD (relative difference vs time 0) in SIF ([9]; 180 min): 3.46% | Concentration Found in SIF ([9]; 180 min, 37 °C): 6930 ± 770 ng/mL | stability in SIF (in words) ([9]; SIF pH 6.8, 3 h, 37 °C): considered stable
